This test relates to F11 cells (rat dorsal root ganglion neuron cell line). As to the kind of experiment: Effect of decreasing intracellular actin filaments in F11 cells with oxaliplatin-induced axonal injury (phalloidin staining). The format is cell-based. As to conditions: F-11 rat/mouse fusion cell line, F11, 120 h, compound 10 μM with oxaliplatin 15 μM, 5 days; compared to oxaliplatin alone treated group; average of five samples; read-out: Decreasing Rate of Intracellular Actin Filament (%). An excerpt: The effect of the cyclic amine derivative (I) or a pharmacologically acceptable salt thereof on the amount of intracellular actin filaments in F11 cells (rat dorsal root ganglion neuron cell line) was examined.
As test compounds, the compounds of Examples 1, 2, 3, 4, 5, 6, 7, 8, and 9 were used.
As compounds of comparative examples, 1-(4-(dimethylamino)piperidin-1-yl)-3-(1-ethyl-1H-imidazol-2-yl)-3-hydroxypropan-1-one (hereinafter, the compound of Comparative Example 1), 1-(4-(dimethylamino)piperidin-1-yl)-3-hydroxy-3-(1-(2,2,2-trifluoroethyl)-1H-imidazol-2-yl)propan-1-one (hereinafter, the compound of Comparative Example 2), 1-((R)-3-(dimethylamino)pyrrolidin-1-yl)-3-hydroxy-3-(1-methyl-1H-imidazol-2-yl)propan-1-one (hereinafter, the compound of Comparative Example 3), and 1-((R)-[…]-3-hydroxy-3-(1-methyl-1H-imidazol-2-yl)propan-1-one (hereinafter, the compound of Comparative Example 4) shown in Table 4 were used. The compounds of Comparative Examples 1, 2, 3, and 4 were synthesized in accordance with methods described in International Publication No. WO2016/136944.
For peeling the F11 cells off from a culture flask, 0.25% Trypsin/EDTA (manufactured by Thermo Fisher Scientific K.K.) was added to the cells, followed by incubation at room temperature for several minutes. Thereafter, 10% fetal bovine serum-containing DMEM medium (manufactured by Thermo Fisher Scientific K.K.) was added thereto for suspension, and the resultant centrifuged at 1,500 rpm for 1 minute. After removing the resultant centrifugal supernatant, 0.5% fetal bovine serum-containing DMEM medium was added thereto for suspending cells therein, and the resultant seeded in a poly-D-lysine-coated 96 well plate (manufactured by BD Biosciences) coated with laminin (2 μg/cm^2, manufactured by Sigma Aldrich) to be cultured at 37° C. under an environment of 5% CO2. Two hours after seeding the cells, N,N-dibutyladenosine 3′,5′-phosphate (final concentration 1 mM, manufactured by Sigma Aldrich) and recombinant rat GDNF (final concentration 50 ng/mL, manufactured by PeproTech) were added thereto to culture the cells at 37° C. under an environment of 5% CO2 for 7 days for differentiation.
Seven days after starting the culture, the medium was exchanged with 0.5% fetal bovine serum-containing DMEM medium containing oxaliplatin (final concentration 15 μM), and the resultant cultured for 5 days to induce axonal injury. Each of the compounds of Examples and Comparative Examples was caused to be contained in the medium (final concentration 10 μM) for treatment in the same manner as oxaliplatin.
Five days after treatment with oxaliplatin and each of the compounds, the resultant cells were washed with PBS(−) three times, a 4% paraformaldehyde-phosphate buffer (manufactured by Wako Pure Chemical Industries Ltd.) was added thereto, and the resultant allowed to stand still at room temperature for 10 minutes to fix the cells. Acti-stain 670 phalloidin (manufactured by Cytoskeleton Inc.) was added thereto, and the resultant incubated at room temperature for 30 minutes to stain actin filaments. An image of the cells was acquired using IN Cell Analyzer 2200 (manufactured by GE Healthcare), and the image analyzed using IN Cell Investigator Developer Toolbox. The amount of intracellular actin filaments was indicated by the amount of fluorescence (density) of fluorescent-labeled phalloidin binding to the actin filaments.
In a group treated with oxaliplatin alone (hereinafter, the oxaliplatin alone treated group), the amount of intracellular actin filaments increased by 5% compared to that in a group not treated with oxaliplatin. […] A decreasing rate of intracellular actin filaments, caused by each compound compared to the amount of intracellular actin filaments of the oxaliplatin alone treated group was calculated. […]

Inhibition data for 1 molecule are collected here from patent US12545668B2, “Cyclic amine derivative as agent for promoting advillin function, and novel cyclic amine derivative and pharmaceutical use thereof” (Toray Industries, Inc., priority 2018, dated 2026).

Consider `CN(C)C1CCN(C(=O)C[C@H](O)c2nccn2C)CC1` [Example 7, (S)-1-(4-(dimethylamino)piperidin-1-yl)-3-hydroxy-3-(1-methyl-1H-imidazol-2-yl)propan-1-one], for which the inhibition at 10 µM is at least 5%.
